What was measured:
[1] = tested on: bacterial (S. aureus) biofilm; assay: Bacterial biofilm disruption assay; type: cell-based, Staphylococcus aureus
Experimental: (§1) Two types of biofilm assays were performed: an inhibition assay and a disruption assay. The inhibition assay assesses the compound's ability to prevent biofilm development, while the disruption assay assesses the compound's ability to break up an existing mature biofilm.
(§2) All bacterial biofilm solutions were prepared in Tryptic Soy Broth (TSB), supplemented with 1% glucose (henceforth referred to as TSB-G). All subsequent procedures were performed in a manner that maintained sterility. A solution of each amino acid or an amino acid derivative to be tested was prepared in weight to volume concentrations ranging from 0.1-5.0%. Amino acids and amino acid derivatives were also tested in combinations. Compound solutions were homogenized with gentle agitation in the dark (4° C., 24 hours) before use.
(§3) 32 Amino acids and 2 amino acid derivatives of the amino acid serine that occur freely in human blood were tested. […] 31 of the 32 amino acids that were tested were the L-Isomers. Glycine has no stereoisomers. The 2 amino acid derivatives, ethanolamine and phosphoethanolamine were also tested. All biofilm assays were performed using 384-well non-tissue culture-treated polystyrene plates. The fungal species tested are as follows: Candida albicans, Candida guilliermondii, Candida parapsilosis, Candida glabrata, Candida tropicalis and Candida dubliniensis. The bacterial species tested are as follows: Staphylococci (standard wild type and methicillin-resistant strain USA300), Escherichia coli, Pseudomonas aeruginosa and Staphylococcus epidermidis.
(§4) Bacterial strains were streaked on Blood Agar plates (5% sheep blood in Tryptic Soy Broth) and incubated at 37° C. for 24 hours. A single colony from each strain to be tested was inoculated in a TSB broth and grown for 12 hours, at 37° C. with shaking (225 rpm). For the bacterial biofilm inhibition assays, 1 μL of saturated overnight cell culture was added to either 80 μL of TSB-G, or TSB-G supplemented with the amino acid compound solution to be tested, in a 384-well plate. The cells were allowed to adhere to the plate for 60 minutes at 37° C. without shaking. The media was carefully aspirated and 80 μL of TSB-G, or TSB-G supplemented with the amino acid compound solution was added to the plate. The plate was further incubated for 24 hours at 37° C. without shaking. Media was carefully aspirated and the biofilm was measured by optical density at 600 nm. Eight or twelve replicates were performed for each tested condition and the reported values are normalized to the control (TSB-G media only). For the bacterial biofilm disruption assays, 80 µL of TSB-G was added to the plate, along with 1 μL of overnight cell culture. The cells were allowed to adhere to the plate for 60 minutes at 37° C. with no shaking. The media was carefully aspirated and 80 μL of TSB-G was added to the plate. The plate was further incubated for 24 hours at 37° C. with no shaking. Media was carefully aspirated from the mature biofilm and 80 μL of TSB-G, or TSB-G supplemented with the amino acid to be tested, was gently added to the plate. The plate was further incubated for 24 hours at 37° C. without shaking. Media was aspirated and the biofilm was measured by optical density at 600 nm. Twelve replicates were performed for each tested condition and the reported values are normalized to the control (TSB-G media only).

[2] = tested on: bacterial (S. aureus) biofilm; assay: Bacterial biofilm inhibition assay; type: cell-based, Staphylococcus aureus
Experimental: as §1, §2, §3, §4

bacterial biofilm = assay: In vitro testing on bacterial biofilm (inhibition and/or disruption); type: cell-based; conditions: in vitro testing
Experimental: as §1, §2, §3, §4

[3] = tested on: fungal biofilm (C. albicans); assay: Fungal biofilm disruption assay; type: cell-based, Candida albicans
Experimental: as §1, §2, §3
(§5) Fungal strains were streaked on Yeast Peptone Dextrose (YPD) agar plates and incubated at 30° C. for 48 hours. A single colony from each strain to be tested was inoculated into YPD broth and grown for 12 hours at 30° C., shaking at 225 rpm. […] The cells were allowed to adhere to the plate for 90 minutes at 37° C. with shaking (350 rpm). […] The plate was further incubated for 24 hours at 37° C. with shaking (350 rpm). Media was carefully aspirated and the biofilm was measured by optical density at 600 nm. […] The cells were allowed to adhere to the plate for 90 minutes at 37° C. with shaking (350 rpm). […] The plate was further incubated for 24 hours at 37° C. with shaking (350 rpm). […] The plate was further incubated for 24 hours at 37° C. with shaking (350 rpm). Media was carefully aspirated, and the biofilm was measured by optical density at 600 nm.

[4] = tested on: bacterial (S. aureus) biofilm and fungal biofilm (C. albicans); assay: Biofilm inhibition assay, bacterial and fungal taken together; type: cell-based; conditions: symbol marks the assay
Experimental: as §1, §2, §3, §5
as §4, with “plate.” for “plate. The plate was further incubated for 24 hours at 37° C. without shaking. Media was aspirated and the biofilm was measured by optical density at 600 nm. Twelve replicates were performed for each tested condition and the reported values are normalized to the control (TSB-G media only).”

[5] = Table F, in the presence of a sufficient concentration of glycerol
[6] = Table E, in the absence of an infusion of glycerol

| Compound | Reduce or Inhibit B Biofilm (dots: Disruption Biofilm Assay) ([1]; Table D, 0.1 to 5.0%) | Reduce or Inhibit B Biofilm (dots: Disruption Biofilm Assay) [1, 5] | Reduce or Inhibit B Biofilm (squares: Inhibition Biofilm Assay) ([2]; Table D, 0.1 to 5.0%) | Reduce or Inhibit B Biofilm (squares: Inhibition Biofilm Assay) [2, 5] | effect on bacterial biofilm (in words) (bacterial biofilm) | Promote B Biofilm (squares: Inhibition Biofilm Assay) ([2]; Table D, 0.1 to 5.0%) | Promote B Biofilm (squares: Inhibition Biofilm Assay) [2, 6] | other results |
| --- | --- | --- | --- | --- | --- | --- | --- | --- |
| NCCOP(=O)(O)O [Phospho-ethanolamine, phosphoethanolamine] | ● (Single dot [ie. ●] signifies little effect on the Disruption Biofilm Assay (from about 10 to less than 30%)) | ● (Single dot [ie. ●] signifies little effect on the Disruption Biofilm Assay (from about 10 to less than 30%)) | ▪ (Single square [ie. ▪] signifies little effect on the Inhibition Biofilm Assay (from about 10 to less than 30%)) | ▪ (Single square [ie. ▪] signifies little effect on the Inhibition Biofilm Assay (from about 10 to less than 30%)) | antibacterial biofilm effect |  |  |  |
| N[C@@H](CO)C(=O)O [Serine, L-serine] |  |  |  |  | promoted bacterial biofilm formation |  |  | Reduce or Inhibit F Biofilm (dots: Disruption Biofilm Assay) ([3]; Table D, 0.1 to 5.0%): ● (Single dot [ie. ●] signifies little effect on the Disruption Biofilm Assay (from about 10 to less than 30%)); Reduce or Inhibit F Biofilm (dots: Disruption Biofilm Assay) [3, 5]: ● (Single dot [ie. ●] signifies little effect on the Disruption Biofilm Assay (from about 10 to less than 30%)) |
| N[C@@H](CCSC[C@H](N)C(=O)O)C(=O)O [Cystathionine, L-cystathionine] | ● (Single dot [ie. ●] signifies little effect on the Disruption Biofilm Assay (from about 10 to less than 30%)) | ● (Single dot [ie. ●] signifies little effect on the Disruption Biofilm Assay (from about 10 to less than 30%)) |  |  | antibacterial biofilm effect |  |  | Neutral (square: Inhibition Biofilm Assay) ([4]; Table D, Neutral = no effect on the biofilm): ▪ (Single square [ie. ▪] signifies little effect on the Inhibition Biofilm Assay (from about 10 to less than 30%)); Neutral (square: Inhibition Biofilm Assay) [4, 6]: ▪ (Single square [ie. ▪] signifies little effect on the Inhibition Biofilm Assay (from about 10 to less than 30%)); Neutral (square: Inhibition Biofilm Assay) [4, 5]: ▪ (Single square [ie. ▪] signifies little effect on the Inhibition Biofilm Assay (from about 10 to less than 30%)) |
| NC(CCCC(=O)O)C(=O)O (stereo not shown) [2 Aminoadipic Acid, 2-aminoadipic acid] | ● (Single dot [ie. ●] signifies little effect on the Disruption Biofilm Assay (from about 10 to less than 30%)) | ● (Single dot [ie. ●] signifies little effect on the Disruption Biofilm Assay (from about 10 to less than 30%)) | ▪ (Single square [ie. ▪] signifies little effect on the Inhibition Biofilm Assay (from about 10 to less than 30%)) | ▪ (Single square [ie. ▪] signifies little effect on the Inhibition Biofilm Assay (from about 10 to less than 30%)) | antibacterial biofilm effect |  |  |  |
| CSCC[C@H](N)C(=O)O [Methionine, L-methionine] |  |  |  |  | promoted bacterial biofilm formation | ▪ (Single square [ie. ▪] signifies little effect on the Inhibition Biofilm Assay (from about 10 to less than 30%)) | ▪ (Single square [ie. ▪] signifies little effect on the Inhibition Biofilm Assay (from about 10 to less than 30%)) |  |
| N=C(N)NCCC[C@H](N)C(=O)O [Arginine, L-arginine] |  |  |  |  | promoted bacterial biofilm formation | ▪ (Single square [ie. ▪] signifies little effect on the Inhibition Biofilm Assay (from about 10 to less than 30%)) | ▪ (Single square [ie. ▪] signifies little effect on the Inhibition Biofilm Assay (from about 10 to less than 30%)) |  |

Source: patent US12109176B1, “Effect of glycerol on biofilm forming bacteria and fungi that changes the microbes sensitivity to pro and anti-biofilm non-toxic, non-bonded plasma amino acids and amino acid derivatives” (priority 2023, dated 2024)
